According to paper PMC8486872, “A rational blueprint for the design of chemically-controlled protein switches” (Nature Communications, 2021):
Several values for one entry are separate records, joined by “and”; a condition that tells them apart may be missing. Equal entries are not always repeated.

How the values were obtained:
HEK293T cells [1] = assay: CCK8 cell viability assay; assay type: cell-based; details: for Normalization of Supplementary Figure5a (CCK8 absorbance): in % (unit assumed); for Absorbance at 450nm (CCK8 colormetric assay): Suppl Fig 5a
Procedure: A cell counting kit-8 (CCK-8) assay (Sigma) was used to measure the cytotoxicity of three drugs on HEK293T cells. 10,000 cells per well were pre-seeded into 96 well plates in 100 µl complete culture medium. The culture medium was changed into drug containing medium with drug concentrations of 0 µM (0.1% DMSO),1 µM, 5 µM and 10 µM. After 24 h drug incubation, 10 µl WST-8 solution was added to each well for 4 h incubation under standard conditions. The absorbance at 450 nm was determined by a multiplate reader (Tecan Infinite 500).
Supplementary Figure 5: Drug toxicity assessment. a) Drug effects on cell viability of HEK293T cells. HEK293T cells were added different concentrations of drugs for an incubation period of 24 hours. WST-8 was added 24 h after drug incubation and the absorbance at 450 nm was measured 4 h later. […]

HEK293T cells [2] = assay: Effect of drugs on protein production (Luciferase reporter, constitutive Gal4-Rel65); assay type: cell-based; details: Suppl Fig 5b
Procedure: Supplementary Figure 5: Drug toxicity assessment. […]
HEK293T cells. The HEK293T cells were transfected with the Luciferase reporter and constitutive Gal4-Rel65 expression plasmid (pCMV-Gal4-Rel65-pA). Drugs were added to the transfected cells 24 hours post-transfection, quantification of luciferase activity 24 hours after the addition of the drugs. Each bar represents the mean of three biological replicates ± s.d overlaid with a scatter dot plot of the original […]

[3] = test system: SEAP expression in HEK293T cells; assay: Background signal of SEAP reporter and single-construct controls; assay type: cell-based
Procedure: Supplementary Figure 7: Dose-dependence and reversibility characterization of CDHs in CDH- […]
transfected with SEAP reporter S132 and treated with 1 µM Drugs 12 hours post transfection.
Quantification of SEAP was performed 24 hours after drug treatment. b) Drug specificity of CDH-TFs. […]
Background signal of SEAP reporter in the absence of the CDH-GEMS system. HEK293T cells were transfected with pLS566 SEAP reporter plasmids and treated with drugs. Quantification of SEAP was performed 24 hours post drug treatment. f) SEAP activity upon transfecting single or paired […]
Quantification of SEAP activity of three CDHs with DMSO (dark color), specific (light color) and unspecific drug treatment (gray). […]
(culture medium) in panels of b, c, f and g were collected every 12 hours. Values were normalized to zero based on the SEAP expression at time 0. a, b, e, f, g) The bar charts show the mean ± s.d. of n = 3 biologically independent samples overlaid with a scatter dot plot of the original data points.

[4] = test system: JAK/STAT pathway SEAP expression in HEK293T cells; assay: AIR-GEMS ON-switch SEAP assay; details: Fig S11a; 100 nM Drug-2
Procedure: We fused the AIR components in the ectodomains of the GEMS and measured SEAP activity as a reporter for drug-triggered activation.
HEK293T cells were maintained in DMEM medium with 10% FBS (Gibco) and Pen/Strep (Thermo Fisher). Cells were maintained and split every two days at around 80% confluence. HEK293T cells were seeded 24 h before transfection, and transfected with the lipofectamine 3000 kit (Thermo Fisher). Plasmids were cotransfected according to the Table S7. For the drug OFF-switch experiments, drugs were added 12 h post transfection and incubated with cells for 24 h before the SEAP detection assay.
Representative data of cellular assays are presented as individual values and mean values (bars). n = 3 refers to biological replicates. All IC50/EC50 values of cellular assays (CDH-TF, CDH-GEMS, AIR-TF and AIR-GEMS) reported were calculated using four-parameter nonlinear regression ± s.d.
Bcl2 mutants were cloned into the AIR-GEMS

[5] = target: T1, LD3 in the presence of Drug-1 (Homo sapiens, UniProt Q07817, DEL45-84/F105I/R102E); assay: SPR pre-screening and competition of Drug-1 resistant Bcl-XL mutants binding LD3; details: 5 µM receptor mixed with 10 µM Drug-1
T1 construct: 6xHis (N); made in house; host or cells: E. coli BL21(DE3)
Procedure: Supplementary Figure 10: Biophysical and cellular characterization of designed Drug-1- […]
a) Pre-screening of Drug-1 resistant Bcl-XL mutants by SPR. 5 µM of Bcl-XL and five mutants were mixed with 10 µM of Drug-1 and injected over the LD3 immobilized chip to analyse the binding response. […]
dilutions of Drug-1 were pre-mixed with 4 µM LD3 and injected over iBcl-XL_v3 immobilized chip to collect the response. c) Dissociation constant measurement of iBcl-XL_v3 and LD3. Sensorgrams are in black dashed curves and the fitted curves in solid red lines. Kd was using a 1:1 binding model. d) […]
normalized to the positive control (DMSO group). […]

mdm2 = mdm2 (Homo sapiens, UniProt Q00987); parameters: method as in PMID 26768531; details: read-out: reported binding affinity to mdm2; cited from earlier work
Chain of mdm2 (Q00987 26-109 limits assumed): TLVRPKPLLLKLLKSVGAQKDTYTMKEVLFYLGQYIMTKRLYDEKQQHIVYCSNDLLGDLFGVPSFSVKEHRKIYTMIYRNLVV

T1 sequence (Q07817 with tags, fused parts or gaps DEL45-84/R102E/F105I limits assumed): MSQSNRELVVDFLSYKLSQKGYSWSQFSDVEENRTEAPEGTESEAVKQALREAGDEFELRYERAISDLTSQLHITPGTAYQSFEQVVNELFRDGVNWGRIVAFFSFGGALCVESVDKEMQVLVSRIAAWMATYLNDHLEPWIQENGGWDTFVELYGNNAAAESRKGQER

Row | Compound | Normalization of Supplementary Figure5a (CCK8 absorbance) (HEK293T cells [1]; 1 µM) | Normalization of Supplementary Figure5a (CCK8 absorbance) (HEK293T cells [1]; 5 µM) | Normalization of Supplementary Figure5a (CCK8 absorbance) (HEK293T cells [1]; 10 µM) | Absorbance at 450nm (CCK8 colormetric assay) (HEK293T cells [1]; 1 µM) | Absorbance at 450nm (CCK8 colormetric assay) (HEK293T cells [1]; 5 µM) | Absorbance at 450nm (CCK8 colormetric assay) (HEK293T cells [1]; 10 µM) | Luciferase production (luminescence) (HEK293T cells [2]; 1 µM) | Luciferase production (luminescence) (HEK293T cells [2]; 5 µM) | Luciferase production (luminescence) (HEK293T cells [2]; 10 µM) | also measured
1 | CN(C)CC#Cc1ccc(OCCCc2sc(N3CCc4cccc(C(=O)Nc5nc6ccccc6s5)c4C3)nc2C(=O)O)c(F)c1 [Drug1] | 107.788 and 102.052 and 84.2322 | 106.001 and 108.808 and 85.1912 | 101.677 and 96.2978 and 81.5907 | 1.2364 and 1.1706 and 0.9662 | 1.2159 and 1.2481 and 0.9772 | 1.1663 and 1.1046 and 0.9359 | 298584 and 267400 and 264776 | 259902 and 193284 and 231257 | 268448 and 250247 and 248473 | 
2 | CC1(C)CCC(CN2CCN(c3ccc(C(=O)NS(=O)(=O)c4ccc(NCC5CCOCC5)c([N+](=O)[O-])c4)c(Oc4cnc5[nH]ccc5c4)c3)CC2)=C(c2ccc(Cl)cc2)C1 [Drug2] | 91.0979 and 90.3939 and 94.3325 | 94.2973 and 98.0561 and 96.7732 | 95.7875 and 97.7823 and 95.6546 | 2.3291 and 2.3111 and 2.4118 | 2.4109 and 2.507 and 2.4742 | 2.449 and 2.5 and 2.4456 | 239858 and 221880 and 230049 | 235551 and 211876 and 214947 | 249510 and 226877 and 232289 | 
3 | Bcl2 |  |  |  |  |  |  |  |  |  | Reporter signal, single constructs vs pair ([3]; Suppl Fig 7f, CDH2): 12.2479 and 10.8467 and 9.94; Reporter signal, single constructs vs pair ([3]; Suppl Fig 7g (so in the source), CDH2): 12.2479 and 10.8467 and 9.94; Reporter signal, 100 nM Drug-2 [4]: 0.7857 and 0.8309 and 0.7087
4 | Bcl-XL: wildtype drug receptor protein of CDH-1 |  |  |  |  |  |  |  |  |  | Reporter signal, single constructs vs pair ([3]; Suppl Fig 7f, CDH1): 17.1033 and 16.0472 and 16.2645; Reporter signal, single constructs vs pair ([3]; Suppl Fig 7g (so in the source), CDH1): 17.1033 and 16.0472 and 16.2645; inhibition by Drug-1 of binding to LD3 immobilized chip [5]: complete inhibition
5 | stapled p53 peptide: stapled p53 peptide (PDB 5afg) used as input peptide motif (LTFAEYWAQLAS) |  |  |  |  |  |  |  |  |  | Kd (mdm2): 12 ± 3 nM
